Holding throughout (assay): NCI anticancer screen, dose series, 48 h
The test system of assay [1] is UO-31.
In assay [2] the test system is HCC 2998.
Assay [3] concerns OVCAR-8.
Assay [4] deals with SN12C.
For assay [5], the system named is HCT-15.
The subject of assay [6] is U-251.
Assay [7] has as its system UACC-257.
Assay [8] deals with SNB-19.
Assay [9] has as its system SF-539.
Assay [10] has as its system OVCAR-4.
Assay [11] deals with HCT-116.
Assay [12] relates to NCI-H226.
In assay [13] the test system is UACC-62.
Assay [14] deals with NCI-H522.
Assay [15] has as its system CAKI-1.
Assay [16] deals with DLD-1.
In assay [17] the test system is OVCAR-5.
The test system of assay [18] is HOP-92.
The test system of assay [19] is NCI/ADR-RES.
In assay [20] the test system is BT-549.

The values below come from ChEMBL document CHEMBL1201862, “PubChem BioAssay data set” (2004).

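Cells were grown in 96-well plates and exposed to each compound for 48 hours at five concentrations; endpoints were interpolated linearly between bracketing concentrations, or set to the highest concentration if not reached. GI50 is the concentration that inhibits growth by half.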 The source made the active and inactive calls. No stated cut-off is given here; in the data, active = GI50 up to about 1.1 µM and inactive = higher.

Turning to `CS(=O)(=O)NNS(=O)(=O)c1ccc(F)cc1`, the GI50 is > 100 µM (inactive) in assay [1]; > 100 µM (inactive) in [2]; > 100 µM (inactive) in assay [3]; > 100 µM (inactive) in assay [4]; over 100 µM in assay [5]; > 100 µM (inactive) in assay [6]. In addition, the GI50 in [7], in assay [8], in assay [9], in assay [10], in [11] and in assay [12] was > 100 µM (inactive) in each case. Also, the GI50 in assay [13], in [14], in assay [15] and in assay [16] was > 100 µM (inactive) throughout.
With `N=C(N)NS(=O)(=O)c1ccc(NC(=O)c2cccc3c(N)c4ccccc4nc23)cc1`, the GI50 was 55.8 µM (inactive) in [1]; > 100 µM (inactive) in [2]; > 100 µM (inactive) in [3]; > 100 µM (inactive) in assay [17]; > 100 µM (inactive) in assay [4]; over 100 µM in assay [5]. The GI50 in [6] was 99.8 µM (inactive); in assay [7] it was > 100 µM (inactive); in assay [8], 26.7 µM (inactive); in assay [9], > 100 µM (inactive); in [10], > 100 µM (inactive); in assay [11], > 100 µM (inactive). Further, the GI50 in assay [12], in assay [13], in [14], in assay [15] and in assay [16] was > 100 µM (inactive) in each case.
As for `Nc1nc(Cl)cc(Nc2cc(Cl)cc(Cl)c2)n1`, the GI50 was 19.6 µM (inactive) in assay [1]; 18.7 µM (inactive) in assay [2]; 21.5 µM (inactive) in assay [18]; 14.2 µM (inactive) in assay [3]; 31.9 µM (inactive) in assay [17]; 22 µM (inactive) in assay [4]. Further, the GI50 was 20.7 µM in assay [5]; 21 µM (inactive) in assay [19]; 21.2 µM (inactive) in [6]; 18.5 µM (inactive) in assay [7]; 23.4 µM (inactive) in assay [8]; 17 µM (inactive) in assay [9]. In addition, the GI50 was 21.7 µM (inactive) in assay [10]; 17.5 µM (inactive) in [11]; 18.7 µM (inactive) in assay [12]; 18.4 µM (inactive) in assay [13]; 10.9 µM (inactive) in [14]; 23.4 µM (inactive) in assay [15]. Besides, the GI50 in [20] was 22.1 µM (inactive).
On to `CCCc1nc(Cl)c(Cl)c(Cl)n1`, for which the GI50 in [1] was 2.71 µM (inactive); in assay [2], 0.556 µM (active); in assay [18], 21 µM (inactive); in assay [3] it was 18.7 µM (inactive); in assay [17], 31.8 µM (inactive); in assay [4] it was 19.6 µM (inactive). In addition, the GI50 was 15.8 µM in [5]; 27 µM (inactive) in assay [19]; 14.7 µM (inactive) in [6]; 32.7 µM (inactive) in [7]; 62.1 µM (inactive) in [8]; 26.9 µM (inactive) in assay [9]. Also, the GI50 in assay [10] is 16 µM (inactive); in [11] it was 9.68 µM (inactive); in [12] it was 36.6 µM (inactive); in [13], 36.5 µM (inactive); in [14] it was 12.4 µM (inactive); in assay [15], 10.7 µM (inactive). Besides, in assay [20], the GI50 is 23.2 µM (inactive).
Regarding `CC(=O)NC1C(OCc2ccccc2)OC(CO)C(O)C1OC(C)C(=O)NC(C)C(=O)NC(CCC(=O)NCCCNc1c2ccccc2nc2cccc([N+](=O)[O-])c12)C(N)=O` (centres undefined), the GI50 in assay [1] is 2.5 µM (inactive); in assay [2], 1.14 µM (inactive); in [18], 1.99 µM (inactive); in assay [3] it was 1.05 µM (active); in assay [17], 2.24 µM (inactive); in assay [4], 1.02 µM (active). In addition, the GI50 in [5] was 1.67 µM; in [19], 4.09 µM (inactive); in assay [6] it was 1.6 µM (inactive); in assay [7], 2 µM (inactive); in assay [8], 3.67 µM (inactive); in assay [9], 3.86 µM (inactive). In addition, the GI50 is 5.14 µM (inactive) in [10]; 0.263 µM (active) in assay [11]; 2.79 µM (inactive) in [12]; 1.25 µM (inactive) in assay [13]; 1.48 µM (inactive) in assay [14]; 1.7 µM (inactive) in [15]. For the same compound, in assay [20], the GI50 is 2.74 µM (inactive).
As to `CCCC(C(=O)OC)C1N/C(=N/C#N)N(Cc2ccccc2)C1=O` (centres undefined), the GI50 in assay [1] is 67.1 µM (inactive); in assay [2], > 100 µM (inactive); in [3] it was > 100 µM (inactive); in assay [17], > 100 µM (inactive); in assay [4] it was > 100 µM (inactive); in assay [5], over 100 µM. In addition, the GI50 in assay [6], in assay [7], in assay [8], in assay [10], in assay [11] and in assay [13] was > 100 µM (inactive) throughout. In addition, the GI50 in assay [14], in assay [15] and in [16] was > 100 µM (inactive) throughout.
For `Cc1c2ccncc2c(C)c2c1[nH]c1ccc(OCC(F)(F)F)cc12`, the GI50 in [1] is 1.73 µM (inactive); in assay [18], 2.23 µM (inactive); in assay [3], 1.32 µM (inactive); in assay [17], 1.53 µM (inactive); in assay [4], 1.37 µM (inactive); in assay [5], 1.05 µM. Moreover, the GI50 was 1.6 µM (inactive) in assay [6]; 1.89 µM (inactive) in [7]; 1.64 µM (inactive) in assay [8]; 1.75 µM (inactive) in assay [9]; 2.03 µM (inactive) in [10]; 1.08 µM (active) in [11]. The GI50 in assay [12] is 1.83 µM (inactive); in [14], 1.65 µM (inactive); in assay [15] it was 2.11 µM (inactive); in [16], 1.57 µM (inactive).
For `CC(C)=CCC[C@@H](C)C1=C(Nc2ccccc2Cl)C(=O)C(C)=C(O)C1=O`, the GI50 was 2.89 µM (inactive) in [1]; 6.18 µM (inactive) in [2]; 6.82 µM (inactive) in assay [18]; 2.81 µM (inactive) in assay [3]; 14.6 µM (inactive) in [17]; 3.72 µM (inactive) in assay [4]. The GI50 in assay [5] was 2.38 µM; in [19], 1.1 µM (active); in [6], 4.27 µM (inactive); in assay [7], 6.46 µM (inactive); in assay [8], 4.49 µM (inactive); in [9] it was 3.79 µM (inactive). Moreover, the GI50 in assay [10] was 5.53 µM (inactive); in assay [11], 3.91 µM (inactive); in assay [12], 4.69 µM (inactive); in [13] it was 3.67 µM (inactive); in [14], 2.57 µM (inactive); in assay [15], 4.06 µM (inactive). In addition, the GI50 in assay [20] is 7.16 µM (inactive).
`CC1=NN(c2cc(Cl)c(S(=O)(=O)O)cc2Cl)C2(C1)C(Cl)C(=O)N2c1nc2ccccc2s1` (centres undefined): the GI50 in assay [1] is 22.2 µM (inactive); in [2], > 100 µM (inactive); in assay [18] it was > 100 µM (inactive); in assay [3], 86.9 µM (inactive); in [17], > 100 µM (inactive); in assay [4], > 100 µM (inactive). The GI50 is over 100 µM in assay [5]; > 100 µM (inactive) in assay [19]; > 100 µM (inactive) in [6]; > 100 µM (inactive) in [7]; > 100 µM (inactive) in assay [8]; > 100 µM (inactive) in [9]. Besides, the GI50 in assay [10] is > 100 µM (inactive); in assay [11], > 100 µM (inactive); in assay [12], 53.5 µM (inactive); in assay [13], 71 µM (inactive); in assay [14], 19.6 µM (inactive); in assay [15], > 100 µM (inactive). For the same compound, in assay [20], the GI50 was > 100 µM (inactive).
For `COc1ccc2c(c1)[n+]([O-])c(-c1ccc(Cl)c(Cl)c1)c(N)[n+]2[O-]`, the GI50 in assay [1] is 39.7 µM (inactive); in [18], > 100 µM (inactive); in [3], 34.9 µM (inactive); in assay [17], 36.8 µM (inactive); in [4] it was 46.1 µM (inactive); in assay [5], 33.3 µM. In addition, the GI50 was 35.1 µM (inactive) in assay [6]; 16.4 µM (inactive) in assay [7]; > 100 µM (inactive) in [8]; 23 µM (inactive) in [9]; 28.7 µM (inactive) in [10]; 42.9 µM (inactive) in assay [11]. In addition, the GI50 was 45.1 µM (inactive) in assay [12], 14.3 µM (inactive) in [14], 37.9 µM (inactive) in assay [15] and 33.9 µM (inactive) in assay [16].
With `COc1ccc(C2SCC(=O)N2NC(=O)C(C)Oc2ccccc2Cl)cc1` (centres undefined), the GI50 in assay [1] is 70.5 µM (inactive); in [2] it was > 100 µM (inactive); in [18], 23.7 µM (inactive); in [3], 61.1 µM (inactive); in [17] it was > 100 µM (inactive); in [4], 63.2 µM (inactive). For the same compound, the GI50 is 49.8 µM in assay [5]; 63.2 µM (inactive) in [19]; 38 µM (inactive) in assay [6]; > 100 µM (inactive) in assay [7]; 69.2 µM (inactive) in [8]; > 100 µM (inactive) in assay [9]. The GI50 in assay [10] was 60.7 µM (inactive); in assay [11] it was 40.3 µM (inactive); in [12], 51.6 µM (inactive); in [13], 46 µM (inactive); in [14] it was 51.9 µM (inactive); in [15], > 100 µM (inactive). Besides, in assay [20], the GI50 is 85.7 µM (inactive).
